This note sets out measurements from patent US9737516B2, “Bicyclic heterocycles as bet protein inhibitors” (Incyte Corporation, priority 2013, dated 2017).

Broadly, the IC50 is the midpoint of a concentration-inhibition curve.

In one assay the test system is KMS.12.BM cells. In words: KMS.12.BM cell viability assay (ATP quantitation, Cell Titer-GLO). The format is cell-based. Particulars: Homo sapiens, 72 h, 3 days, concentration required for 50% cell death, read-out: KMS cellular IC50. As to the method: KMS.12.BM cell line (human myeloma) was purchased from JCRB (Osaka, Japan) and maintained in RPMI with 10% FBS culture medium. To measure the cytotoxic activity of the compounds through ATP quantitation, the KMS.12.BM cells are plated in the RPMI culture medium at 5000 cells/well/per 100 μL into a 96-well polystyrene clear black tissue culture plate (Greiner-bio-one through VWR, NJ), in the presence or absence of a concentration range of test compounds. After 3 days, […] Cell Titer-GLO Luminescent (Promega, Madison, Wis.) cell culture agent is added to each well for 10 minutes at room temperature to stabilize the luminescent signal. This determines the number of viable cells in culture based on quantitation of the ATP present, which signals the presence of metabolically active cells. Luminescence is measured with the Top Count 384 (Packard Bioscience through Perkin Elmer, Boston, Mass.). Compound inhibition is determined relative to cells cultured with no drug and the IC50 is reported as the compound concentration required for 50% cell death. IC50 data for the Examples is presented in Table 2 as determined by Assay B1.

For the next assay, the target named is BRD4-BD1 (Homo sapiens (Human), UniProt O60885). The assay is described as follows: BRD4 AlphaScreen assay (BRD4-BD1). Format: binding. As to conditions: H4Ac4 peptide, 3.8 nM BRD4-BD1, read-out: BRD4 BD-1 enzyme IC50. Here is the method:
(§1) BRD4-BD1 and BRD4-BD2 assays were conducted in white 384-well polystyrene plate in a final volume of 20 μL for BD1 and 40 μL for BD2. Inhibitors were first serially diluted in DMSO and added to the plate wells before the addition of other reaction components. The final concentration of DMSO in the assay was 1.25% (BD1) and 0.83% (BD2). The assays were carried out at room temperature for 75 min. in the assay buffer (50 mM HEPES, pH 7.4, 100 mM NaCl, 0.05% CHAPS, 0.01% BSA), containing 50 nM Biotin-labeled tetra-acetylated histone H4 peptide (H4Ac4), 3.8 nM (BRD4-BD1, BPS Bioscience #31040) or 20 nM (BRD4-BD2, BPS Bioscience #31041). The reaction followed by the addition of 20 μL of assay buffer supplemented with Streptavidin donor beads (PerkinElmer 6760002) and GSH Acceptor beads (PerkinElmer-AL109C) at 4 µg/mL under reduced light. After plate sealing, the plate was incubated in the dark at room temperature for 75 min. before reading on a PHERAstar FS plate reader (BMG Labtech). IC50 determination was performed by fitting the curve of percent control activity versus the log of the inhibitor concentration using the GraphPad Prism 5.0 software. IC50 data for the Examples is presented in Table 1 as determined by Assay A1.
On the technique in general: Bead proximity is the source of the signal in Alpha formats.

The target in a further assay is BRD4-BD2 (Homo sapiens (Human), UniProt O60885). In words: BRD4 AlphaScreen assay (BRD4-BD2). Format: binding. As to conditions: H4Ac4 peptide, 20 nM BRD4-BD2, read-out: BRD4 BD-2 enzyme IC50. Here is the method:
as §1

Another assay has as its system C-myc in KMS.12.BM cells. In words: KMS.12.BM C-myc ELISA assay. Particulars: Homo sapiens, 2 hours. Format: cell-based. Here is the method: KMS.12.BM cell line (human myeloma) was purchased from JCRB (Osaka, Japan) and maintained in RPMI with 10% FBS culture medium. To measure the C-myc inhibitory activity of the compounds, the KMS.12.BM cells are plated in the RPMI culture medium at 75000 cells/well/per 200 μL into a 96-well flat bottom polystyrene tissue culture plate (Corning through VWR, N.J.), in the presence or absence of a concentration range of test compounds. After 2 hours, cell are pelleted and lysed with Cell Extraction Buffer (BioSource, Carlsbad, Calif.) in the presence of protease inhibitors (Life Technologies, Grand Island, N.Y. and Sigma, St Louis, Mo.). Clarified lyses are tested in a C-myc commercial ELISA (Life Technologies, Grand Island, N.Y.). Compound inhibition is determined relative to cells cultured with no drug and the IC50 is reported as the compound concentration required for 50% C-myc inhibition. IC50 data for the Examples is presented in Table 3 as determined by Assay C1.

Some results are limits rather than exact numbers.

On to `Cn1cc(-c2cc3ncn(Cc4ccccc4)c3cc2OCC2CCC2)c2cc[nH]c2c1=O` [Example 17, 4-[6-(Cyclobutylmethoxy)-1-benzyl-1H-benzimidazol-5-yl]-6-methyl-1,6-dihydro-7H-pyrrolo[2,3-c]pyridin-7-one], for which the IC50 is at most 1000 nM in the assay with KMS.12.BM cells, at most 100 nM at BRD4-BD1, at most 100 nM at BRD4-BD2 and at most 1000 nM in the assay with C-myc in KMS.12.BM cells.

Regarding `CC(C)n1cnc2cc(OCC3CCC3)c(-c3cn(C)c(=O)c4[nH]ccc34)cc21` [Example 18, 4-[5-(Cyclobutylmethoxy)-1-isopropyl-1H-benzimidazol-6-yl]-6-methyl-1,6-dihydro-7H-pyrrolo[2,3-c]pyridin-7-one], the half-maximal inhibitory concentration (IC50) is at most 1000 nM in the assay with KMS.12.BM cells, at most 100 nM at BRD4-BD1, at most 100 nM at BRD4-BD2 and at most 1000 nM in the assay on C-myc in KMS.12.BM cells.

For `CC(C)n1cnc2cc(-c3cn(C)c(=O)c4[nH]ccc34)c(OCC3CCC3)cc21` [Example 19, 4-[6-(cyclobutylmethoxy)-1-isopropyl-1H-benzimidazol-5-yl]-6-methyl-1,6-dihydro-7H-pyrrolo[2,3-c]pyridin-7-one], the half-maximal inhibitory concentration (IC50) in the assay on KMS.12.BM cells is at most 1000 nM; at BRD4-BD1 it was at most 100 nM; at BRD4-BD2, at most 100 nM; with C-myc in KMS.12.BM cells it was at most 1000 nM.

Regarding `Cn1cc(-c2cc3[nH]c(N4CCCCC4)nc3cc2OCC2CCC2)c2cc[nH]c2c1=O` [Example 20, 4-[5-(Cyclobutylmethoxy)-2-piperidin-1-yl-1H-benzimidazol-6-yl]-6-methyl-1,6-dihydro-7H-pyrrolo[2,3-c]pyridin-7-one], the IC50 with KMS.12.BM cells was at most 1000 nM; on BRD4-BD1, at most 100 nM; on BRD4-BD2 it was at most 100 nM; in the assay with C-myc in KMS.12.BM cells, at most 1000 nM.
